The source of these data is ChEMBL document CHEMBL3397020, “Synthesis of benzopentathiepin analogs and their evaluation as inhibitors of the phosphatase STEP” (Bioorg Med Chem Lett, 2015).

The structures appear in SMILES notation.

In assay [1] the target is T1, Tyrosine-protein phosphatase non-receptor type 5 (Homo sapiens, UniProt P54829).
T1 sequence (P54829 whole entry): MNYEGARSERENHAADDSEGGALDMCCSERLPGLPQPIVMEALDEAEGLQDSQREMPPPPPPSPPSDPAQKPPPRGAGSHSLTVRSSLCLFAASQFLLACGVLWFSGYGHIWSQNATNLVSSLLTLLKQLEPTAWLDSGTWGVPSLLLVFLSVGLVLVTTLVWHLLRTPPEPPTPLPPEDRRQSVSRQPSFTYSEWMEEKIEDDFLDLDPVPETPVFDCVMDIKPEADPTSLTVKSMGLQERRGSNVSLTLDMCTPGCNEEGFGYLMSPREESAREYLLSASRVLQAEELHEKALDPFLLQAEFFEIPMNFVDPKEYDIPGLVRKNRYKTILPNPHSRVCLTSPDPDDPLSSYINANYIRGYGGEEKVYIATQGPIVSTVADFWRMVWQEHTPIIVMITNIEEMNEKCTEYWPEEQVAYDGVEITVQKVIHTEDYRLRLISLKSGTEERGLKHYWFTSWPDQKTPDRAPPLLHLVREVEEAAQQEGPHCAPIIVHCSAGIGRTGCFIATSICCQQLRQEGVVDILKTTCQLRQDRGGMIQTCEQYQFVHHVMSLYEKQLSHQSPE
In words: Inhibition of STEP (unknown origin) pre-incubated for 10 mins before addition of p-nitrophenyl phosphate substrate in presence of 1 mM GSH.

The target in assay [2] is T1, Tyrosine-protein phosphatase non-receptor type 5. Nature of the assay: Inhibition of STEP (unknown origin) pre-incubated for 10 mins before addition of p-nitrophenyl phosphate substrate in absence of GSH.
Assay [3] addresses T2, Tyrosine-protein phosphatase non-receptor type 5 (Homo sapiens) (UniProt P54829).
T2 sequence (whole entry): T1 sequence (P54829 whole entry)
Description: Inhibition of STEP (unknown origin) assessed as second-order rate constant for enzyme inactivation in absence of GSH by p-nitrophenyl phosphate hydrolysis assay

Assay [4] deals with T1, Tyrosine-protein phosphatase non-receptor type 5. Nature of the assay: Inhibition of STEP (unknown origin) in absence of GSH by p-nitrophenyl phosphate hydrolysis assay.

Turning to `O=C(Nc1cc(C(F)(F)F)cc2c1SSSSS2)C(F)(F)F`, the IC50 (in general, the concentration at which inhibition is half-maximal) is 15000 nM in assay [1] and 24 nM in assay [2]. The same compound gave a Kinact in assay [3] of 0.0378 s⁻¹. Affinity in assay [4] was put at a Ki of 235 nM.
